Experimental data: ChEMBL document CHEMBL4814027, “Synthesis and biological evaluation of naphthoquinone phenacylimidazolium derivatives” (Bioorg Med Chem Lett, 2021)

Key:
[1] = system: MCF7; assay: Cytotoxicity against human MCF7 cells by MTT assay; assay type: functional, cell-based
[2] = system: HeLa; assay: Cytotoxicity against human HeLa cells by MTT assay; assay type: functional, cell-based
[3] = system: A549; assay: Cytotoxicity against human A549 cells by MTT assay
[4] = system: L929; assay: Cytotoxicity against mouse L929 cells by MTT assay
[5] = Selectivity ratio of IC50 for mouse L929 cells to IC50 for human MCF7 cells; assay type: toxicity; settings: L929 cells versus MCF7 cells, read-out: Ratio IC50
[6] = Selectivity ratio of IC50 for mouse L929 cells to IC50 for human HeLa cells; assay type: toxicity; settings: L929 cells versus HeLa cells, read-out: Ratio IC50
[7] = Selectivity ratio of IC50 for mouse L929 cells to IC50 for human A549 cells; assay type: toxicity; settings: L929 cells versus A549 cells, read-out: Ratio IC50

Structure (SMILES)	IC50 [1] [µM]	IC50 [2] [µM]	IC50 [3] [µM]	IC50 [4] [µM]	selectivity ratio [5]	selectivity ratio [6]	selectivity ratio [7]
Cn1c[n+](CC(=O)c2ccc(F)cc2)c2c1C(=O)c1ccccc1C2=O	0.34	3.1	1.5	18.2	53.5	5.87	12.1
CC(C)Cn1c[n+](CC(=O)c2cccc([N+](=O)[O-])c2)c2c1C(=O)c1ccccc1C2=O	2.8	4.2	2.9	16.2	5.79	3.86	5.59
CC(C)Cn1c[n+](CC(=O)c2ccco2)c2c1C(=O)c1ccccc1C2=O	0.32	0.6	0.37	8.5	26.6	14.2	23
CCCCn1c[n+](CC(=O)c2ccc([N+](=O)[O-])cc2)c2c1C(=O)c1ccccc1C2=O	6.2	4.4	2.5	20	3.23	4.55	8
CC(C)Cn1c[n+](CC(=O)c2ccc3ccccc3c2)c2c1C(=O)c1ccccc1C2=O	2.7	4.3	1.3	17.7	6.56	4.12	13.6
Cn1c[n+](CC(=O)c2ccccc2)c2c1C(=O)c1ccccc1C2=O	0.37	1.5	0.42	29.9	80.8	19.9	71.2
Cn1c[n+](CC(=O)c2ccc3ccccc3c2)c2c1C(=O)c1ccccc1C2=O	10.5	6.1	1.4	19	1.81	3.11	13.6
C#CCn1c[n+](CC(=O)c2ccc([N+](=O)[O-])cc2)c2c1C(=O)c1ccccc1C2=O	40.9	17.2	15.1	19	0.46	1.1	1.26
COc1ccc(C(=O)C[n+]2cn(C)c3c2C(=O)c2ccccc2C3=O)cc1	0.71	1.6	0.24	11.7	16.5	7.31	48.8
CC(C)Cn1c[n+](CC(=O)c2ccc(Cl)cc2)c2c1C(=O)c1ccccc1C2=O	0.66	3.8	3.3	9.4	14.2	2.47	2.85
CC(C)Cn1c[n+](CC(=O)c2ccc(Br)cc2)c2c1C(=O)c1ccccc1C2=O	0.69	2.7	2.4	15.5	22.5	5.74	6.46
Cc1cc(C)c(-n2c[n+](CC(=O)c3ccc([N+](=O)[O-])cc3)c3c2C(=O)c2ccccc2C3=O)c(C)c1	12.3	41.7	6.6	24.5	1.99	0.59	3.71
O=C(C[n+]1cn(-c2ccccc2)c2c1C(=O)c1ccccc1C2=O)c1ccc([N+](=O)[O-])cc1	59.1	20.3	40.4	31	0.52	1.53	0.77
CC(C)Cn1c[n+](CC(=O)c2ccc([N+](=O)[O-])cc2)c2c1C(=O)c1ccccc1C2=O	2.3	2.7	1	4.6	2	1.7	4.6
Cc1ccc(C(=O)C[n+]2cn(CC(C)C)c3c2C(=O)c2ccccc2C3=O)cc1	0.56	1.8	0.35	4.8	8.57	2.67	13.7
COCCn1c[n+](CC(=O)c2ccc([N+](=O)[O-])cc2)c2c1C(=O)c1ccccc1C2=O	18.9	7.8	2.9	41.3	2.19	5.29	14.2
CC(C)Cn1c[n+](CC(=O)N(C)C)c2c1C(=O)c1ccccc1C2=O	65.6	12.8	0.4	58.8	0.9	4.59	147
Cn1c[n+](CC(=O)c2ccco2)c2c1C(=O)c1ccccc1C2=O	1.4	4.9	0.1	13.6	9.71	2.78	136

Structure (SMILES)	IC50 [1] [µM]	IC50 [2] [µM]	IC50 [3] [µM]	IC50 [4] [µM]	selectivity ratio [5]	selectivity ratio [6]	selectivity ratio [7]
CC(C)Cn1c[n+](CC(=O)c2ccccc2)c2c1C(=O)c1ccccc1C2=O	0.52	0.9	0.32	2.7	5.19	3	8.44
CC(C)Cn1c[n+](CC(=O)C(C)(C)C)c2c1C(=O)c1ccccc1C2=O	10.4	9.4	3.3	10.4	1	1.11	3.15
Cc1ccc(C(=O)C[n+]2cn(C)c3c2C(=O)c2ccccc2C3=O)cc1	0.6	3.5	0.16	14.7	24.5	4.2	91.9
Cn1c[n+](CC(=O)c2ccc(C(F)(F)F)cc2)c2c1C(=O)c1ccccc1C2=O	7.4	9.2	1.3	19.3	2.61	2.1	14.9
CC(C)Cn1c[n+](CC(=O)c2ccc(F)cc2)c2c1C(=O)c1ccccc1C2=O	0.75	0.41	0.2	16.4	21.9	40	82
COc1ccc(C(=O)C[n+]2cn(CC(C)C)c3c2C(=O)c2ccccc2C3=O)cc1	0.31	0.08	0.19	2.3	7.42	28.8	12.1
CC(C)c1cccc(C(C)C)c1-n1c[n+](CC(=O)c2ccc([N+](=O)[O-])cc2)c2c1C(=O)c1ccccc1C2=O	47.9	> 100	26.7	46.5	0.97	< 0.47	1.74
Cn1c[n+](CC(=O)C(C)(C)C)c2c1C(=O)c1ccccc1C2=O	7.6	5.8	2.4	27.4	3.61	4.72	11.4
CN(C)C(=O)C[n+]1cn(C)c2c1C(=O)c1ccccc1C2=O	7.6	0.2	0.1	4.3	0.57	21.5	43
Cn1c[n+](CC(=O)c2cccs2)c2c1C(=O)c1ccccc1C2=O	0.94	7	0.3	22.9	24.4	3.27	76.3
CCC(C)n1c[n+](CC(=O)c2ccc([N+](=O)[O-])cc2)c2c1C(=O)c1ccccc1C2=O (configuration not stated)	8.9	8.4	1.8	27.1	3.04	3.23	15.1
Cn1c[n+](CC(=O)c2ccc(Br)cc2)c2c1C(=O)c1ccccc1C2=O	7.3	8.3	0.95	20.7	2.84	2.49	21.8
CCCn1c[n+](CC(=O)c2ccc([N+](=O)[O-])cc2)c2c1C(=O)c1ccccc1C2=O	8.3	8.4	3	24.2	2.92	2.88	8.07
Cn1c[n+](CC(=O)c2ccc([N+](=O)[O-])cc2)c2c1C(=O)c1ccccc1C2=O	12.1	10.1	3.6	53.1	4.39	5.26	14.8
CCn1c[n+](CC(=O)c2ccc([N+](=O)[O-])cc2)c2c1C(=O)c1ccccc1C2=O	16.7	8.8	2.1	27.7	1.66	3.15	13.2
Cn1c[n+](CC(=O)c2ccccc2[N+](=O)[O-])c2c1C(=O)c1ccccc1C2=O	18	8.7	0.5	41.8	2.32	4.8	83.6
Cn1c[n+](CC(=O)c2cccc([N+](=O)[O-])c2)c2c1C(=O)c1ccccc1C2=O	12.9	7.6	2.2	36.9	2.86	4.86	16.8
O=C(C[n+]1cn(C2CC2)c2c1C(=O)c1ccccc1C2=O)c1ccc([N+](=O)[O-])cc1	60.4	22.2	12.3	6.1	0.1	0.27	0.5
